Data on 14 compounds can be found in publication PMC7462494, “Novel Bi-heterocycles as Potent Inhibitors of Urease and Less Cytotoxic Agents: 3-({5-((2-Amino-1,3-thiazol-4-yl)methyl)-1,3,4-oxadiazol-2-yl}sulfanyl)-N-(un/substituted-phenyl)propanamides” (Iranian Journal of Pharmaceutical Research : IJPR, 2020).

Read-outs that look alike come from different tables or passages of the source.

In data set [1] the target is urease (Canavalia ensiformis, UniProt P07374). The experiment in a line: Urease inhibition assay (customized Berthelot assay). It is filed as biochemical. The conditions noted are these: for inhibition at 500 µM: read-out: Urease Inhibition, Inhibition (%). The method, then:
This enzyme assay is the customized form of the commonly known Berthelot assay ([23], [24]). […] The contents were pre-incubated at 37 °C for 5 min. 40 µL of urea stock solution (20 mM) was added to each well with incubation for 10 min at 37 °C. It is followed by the addition of 115 µL phenol hypochlorite reagents (freshly prepared by mixing 45 µL phenol with 70 µL of alkali) per well. For color development, incubation was carried out for further 10 min at 37 °C. The absorbance was measured at 625 nm. The percentage enzyme inhibition and IC50 values were calculated using the following formula:
inhibition%=Control-test/Control×100
Where, Control is the total enzyme activity without inhibitor and Test is the activity in the presence of test compound. IC50 values were calculated using the EZ–Fit Enzyme kinetics software (Perrella Scientific Inc. Amherst, US).
Statistical analysis was performed by Microsoft Excel 2010 for all the thrice measured values and the results are presented as mean ± SEM.

Data set [2] can be described thus: Hemolytic activity (cytotoxicity through hemolysis). In kind it is cell-based. Conditions: bovine, red blood cell (erythrocyte) suspension, pH 7.4, 20 µL compound solution (10 mg/mL) in 180 µL RBCs suspension, room temperature, PBS negative control, Triton positive control. The text has this: The erythrocytes separated diluted in phosphate buffer saline of pH 7.4 and a suspension was made.

Sequence of urease (P07374 whole entry, looked up): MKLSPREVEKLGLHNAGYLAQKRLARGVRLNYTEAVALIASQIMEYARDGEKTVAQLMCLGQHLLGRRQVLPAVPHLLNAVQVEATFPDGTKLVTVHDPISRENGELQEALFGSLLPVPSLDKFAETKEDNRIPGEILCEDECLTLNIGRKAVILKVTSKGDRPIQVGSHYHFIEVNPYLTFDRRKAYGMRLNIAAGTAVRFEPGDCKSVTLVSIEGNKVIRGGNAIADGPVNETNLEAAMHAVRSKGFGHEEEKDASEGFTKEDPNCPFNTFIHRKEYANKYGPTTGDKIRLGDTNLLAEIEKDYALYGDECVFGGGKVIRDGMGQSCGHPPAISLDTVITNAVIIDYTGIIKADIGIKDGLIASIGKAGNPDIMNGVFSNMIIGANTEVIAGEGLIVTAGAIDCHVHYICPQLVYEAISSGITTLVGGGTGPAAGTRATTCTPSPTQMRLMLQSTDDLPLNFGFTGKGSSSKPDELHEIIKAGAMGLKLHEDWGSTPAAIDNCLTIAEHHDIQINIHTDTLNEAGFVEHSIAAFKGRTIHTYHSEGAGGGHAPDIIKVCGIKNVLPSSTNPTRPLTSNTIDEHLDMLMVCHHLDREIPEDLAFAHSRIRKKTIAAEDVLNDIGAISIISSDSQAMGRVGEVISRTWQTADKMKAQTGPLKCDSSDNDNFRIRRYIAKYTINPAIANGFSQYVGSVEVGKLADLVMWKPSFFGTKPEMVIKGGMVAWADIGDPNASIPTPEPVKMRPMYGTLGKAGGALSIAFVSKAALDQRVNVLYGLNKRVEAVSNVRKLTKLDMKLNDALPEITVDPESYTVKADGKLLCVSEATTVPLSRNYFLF

`Nc1nc(Cc2nnc(SCCC(=O)Nc3ccccc3)o2)cs1` [Compound 7a, 3-({5-[(2-Amino-1,3-thiazol-4-yl)methyl]-1,3,4-oxadiazol-2-yl}sulfanyl)-N-phenylpropanamide] returned a melting point of 190 to 191 °C. In addition, in data set [1], it took 2450 ± 40 nM to reach half-maximal inhibition (IC50) and the inhibition at 500 µM amounted to 98.24 ± 0.08%. For the same compound, in data set [2], the hemolysis at 30 min, 1 mg/mL was determined as 11.5%.

For `Cc1ccccc1NC(=O)CCSc1nnc(Cc2csc(N)n2)o1` [Compound 7b, 3-({5-[(2-Amino-1,3-thiazol-4-yl)methyl)-1,3,4-oxadiazol-2-yl}sulfanyl)-N-(2-methylphenyl)propanamide], in data set [1], the midpoint of inhibition, the IC50, lay at 2640 ± 30 nM and the inhibition at 500 µM turned out to be 96.42 ± 0.02%. For the same compound, in data set [2], the hemolysis at 30 min, 1 mg/mL was determined as 7.05%.

For `Cc1cccc(NC(=O)CCSc2nnc(Cc3csc(N)n3)o2)c1` [Compound 7c, 3-({5-[(2-Amino-1,3-thiazol-4-yl)methyl]-1,3,4-oxadiazol-2-yl}sulfanyl)-N-(3-methylphenyl)propanamide], in data set [1], the half-inhibitory concentration (IC50) worked out at 1320 ± 20 nM and the inhibition at 500 µM turned out to be 98.52 ± 0.05%. The hemolysis at 30 min, 1 mg/mL in data set [2] amounted to 5.16%.

As for `Cc1ccc(NC(=O)CCSc2nnc(Cc3csc(N)n3)o2)cc1` [Compound 7d, 3-({5-[(2-Amino-1,3-thiazol-4-yl)methyl]-1,3,4-oxadiazol-2-yl}sulfanyl)-N-(4-methylphenyl)propanamide], in data set [1], the half-inhibitory concentration (IC50) worked out at 1750 ± 10 nM and the inhibition at 500 µM came to 98.13 ± 0.02%. Besides, in data set [2], the hemolysis at 30 min, 1 mg/mL worked out at 7.16%.

Regarding `Cc1ccc(NC(=O)CCSc2nnc(Cc3csc(N)n3)o2)c(C)c1` [Compound 7e, 3-({5-[(2-Amino-1,3-thiazol-4-yl)methyl]-1,3,4-oxadiazol-2-yl}sulfanyl)-N-(2,4-dimethylphenyl)propanamide], in data set [1], the half-inhibitory concentration (IC50) came to 1240 ± 10 nM and the inhibition at 500 µM was 98.19 ± 0.09%. For the same compound, in data set [2], the hemolysis at 30 min, 1 mg/mL worked out at 6.74%.

As to `Cc1ccc(C)c(NC(=O)CCSc2nnc(Cc3csc(N)n3)o2)c1` [Compound 7f, 3-({5-[(2-Amino-1,3-thiazol-4-yl)methyl]-1,3,4-oxadiazol-2-yl}sulfanyl)-N-(2,5-dimethylphenyl)propanamide], in data set [1], the midpoint of inhibition, the IC50, lay at 5180 ± 60 nM and the inhibition at 500 µM was 96.26 ± 0.03%. The same compound registered a hemolysis at 30 min, 1 mg/mL in data set [2] of 6.42%.

Compound `Cc1cccc(C)c1NC(=O)CCSc1nnc(Cc2csc(N)n2)o1` [Compound 7g, 3-({5-[(2-Amino-1,3-thiazol-4-yl)methyl]-1,3,4-oxadiazol-2-yl}sulfanyl)-N-(2,6-dimethylphenyl)propanamide] came in with a melting point of 149 to 150 °C. For the same compound, in data set [1], half-maximal inhibition (IC50) required 2630 ± 30 nM and the inhibition at 500 µM came out at 98.52 ± 0.06%. The same compound showed a hemolysis at 30 min, 1 mg/mL in data set [2] of 7.37%.

The compound `Cc1ccc(NC(=O)CCSc2nnc(Cc3csc(N)n3)o2)cc1C` [Compound 7h, 3-({5-[(2-Amino-1,3-thiazol-4-yl)methyl]-1,3,4-oxadiazol-2-yl}sulfanyl)-N-(3,4-dimethylphenyl)propanamide] registered a melting point of 177 to 178 °C. In addition, in data set [1], the IC50 amounted to 2560 ± 20 nM and the inhibition at 500 µM came out at 97.28 ± 0.02%. Besides, the hemolysis at 30 min, 1 mg/mL in data set [2] came out at 5.79%.

For `Cc1cc(C)cc(NC(=O)CCSc2nnc(Cc3csc(N)n3)o2)c1` [Compound 7i, 3-({5-[(2-Amino-1,3-thiazol-4-yl)methyl]-1,3,4-oxadiazol-2-yl}sulfanyl)-N-(3,5-dimethylphenyl)propanamide], in data set [1], it took 3620 ± 10 nM to reach half-maximal inhibition (IC50) and the inhibition at 500 µM is 97.31 ± 0.08%. For the same compound, the hemolysis at 30 min, 1 mg/mL in data set [2] worked out at 5.26%.

`CCc1ccccc1NC(=O)CCSc1nnc(Cc2csc(N)n2)o1` [Compound 7j, 3-({5-[(2-Amino-1,3-thiazol-4-yl)methyl]-1,3,4-oxadiazol-2-yl}sulfanyl)-N-(2-ethylphenyl)propanamide] had a melting point of 198 to 199 °C. For the same compound, in data set [1], the half-maximal inhibitory concentration (IC50) came to 2130 ± 10 nM and the inhibition at 500 µM turned out to be 98.12 ± 0.03%. The compound further showed a hemolysis at 30 min, 1 mg/mL in data set [2] of 6.63%.

For `CCc1ccc(NC(=O)CCSc2nnc(Cc3csc(N)n3)o2)cc1` [Compound 7k, 3-({5-[(2-amino-1,3-thiazol-4-yl)methyl]-1,3,4-oxadiazol-2-yl}sulfanyl)-N-(4-ethylphenyl)propanamide], in data set [1], the concentration for half-maximal inhibition (IC50) worked out at 2850 ± 50 nM and the inhibition at 500 µM was 97.43 ± 0.07%. The same compound came in with a hemolysis at 30 min, 1 mg/mL in data set [2] of 7.16%.

With `CCOc1ccc(NC(=O)CCSc2nnc(Cc3csc(N)n3)o2)cc1` [Compound 7l, 3-({5-[(2-Amino-1,3-thiazol-4-yl)methyl]-1,3,4-oxadiazol-2-yl}sulfanyl)-N-(4-ethoxyphenyl)propanamide], in data set [1], the 50% inhibitory concentration (IC50) turned out to be 2170 ± 20 nM and the inhibition at 500 µM was 97.25 ± 0.04%. The compound further came in with a hemolysis at 30 min, 1 mg/mL in data set [2] of 8.11%.

With `NC(N)=S` [Thiourea, reference compound], the “Urease Inhibition, Inhibition (%)” value in data set [1] (at 0.5 mM, mean ± SEM, n = 3) was “Thiourea 98.12 ± 0.18%”. Besides, the concentration for half-maximal inhibition (IC50) in data set [1] (mean ± SEM, n = 3, EZ-Fit Enzyme kinetics software, read-out: Urease Inhibition, IC50) is 21100 nM.

On to `CC(C)(C)CC(C)(C)c1ccc(OCCO)cc1` [Triton-X, reference compound], for which the hemolysis at 30 min, 1 mg/mL in data set [2] was 89%.

A word on the IC50: it is the concentration that inhibits the measured activity by half. As usually defined, the inhibition is the percentage by which the read-out fell short of the control. What is called melting point is the temperature, or range, at which the solid turns liquid.
